Reference: patent publication US20210330788A1, “USES OF ANTI-BCMA CHIMERIC ANTIGEN RECEPTORS” (CELGENE CORPORATION, priority 2018, published 2021)

Test system: human multiple myeloma (RPMI-8226) tumors
Assay: Sub-cutaneous human multiple myeloma (RPMI-8226) tumor model in NSG mice (FIGS. 8A and 8B)
Assay type: in vivo, NOD scid gamma (NSG) mice
Conditions: ˜100mm^3 tumors; 10^7 CAR T cells or Bortezomib; two independent experiments
Experimental: Hyperactivation and increased apoptosis could negatively impact CAR T cell persistence in patients and ultimately clinical efficacy. The anti-tumor function of anti-BCMA02 CAR T cells and anti-BCMA10 CAR T cells was examined in a mouse tumor model. NOD-scid gamma (NSG) mice with ˜100mm^3 experimental sub-cutaneous human multiple myeloma (RPMI-8226) tumors were treated with 10^7 anti-BCMA02 CAR T cells, 10^7 anti-BCMA10 CAR T cells, or Bortezomib (VELCADE®). RPMI-8226 growth was monitored with calipers.

In the case of `CC(C)C[C@H](NC(=O)[C@H](Cc1ccccc1)NC(=O)c1cnccn1)B(O)O` [Bortezomib], the “RPMI-8226 tumor growth (calipers)” value is reported as “controlled tumor growth”.
